{
  "source": "patent US20250109127A1",
  "about": "“METHODS OF USE OF PHENOXYPROPYLAMINE COMPOUNDS TO TREAT DEPRESSION” (Minerva Neurosciences, Inc., priority 2013, published 2025)",
  "key": {"5-HT1A": {"biological_target": "T1, 5-HT1A (Homo sapiens, UniProt P08908)", "T1 sequence (P08908 1-422)": "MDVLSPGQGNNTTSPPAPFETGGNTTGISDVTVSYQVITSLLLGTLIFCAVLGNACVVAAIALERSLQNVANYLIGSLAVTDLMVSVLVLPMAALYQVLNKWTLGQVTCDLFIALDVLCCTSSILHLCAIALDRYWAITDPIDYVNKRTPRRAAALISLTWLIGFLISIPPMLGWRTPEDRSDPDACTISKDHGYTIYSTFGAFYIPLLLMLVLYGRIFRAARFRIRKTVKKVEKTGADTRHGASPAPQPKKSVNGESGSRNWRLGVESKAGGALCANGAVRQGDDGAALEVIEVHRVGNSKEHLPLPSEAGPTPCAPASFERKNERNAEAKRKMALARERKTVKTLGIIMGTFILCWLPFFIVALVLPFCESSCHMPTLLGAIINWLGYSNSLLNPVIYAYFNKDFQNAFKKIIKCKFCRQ", "test": "Receptor binding, 5-HT1A"}, "[1]": {"test": "Pharmacokinetic study, plasma concentration on day 1 and day 14", "assay_type": "in vivo", "conditions": "day 1 and day 14 after dosing with SON-117", "excerpt": "were examined in pharmacokinetic studies.\nFIG. 34 illustrates the plasma concentration of SON-117 as a function of time on day 1 after dosing with SON-117. FIG. 35 illustrates the plasma concentration of SON-117 as a function of time on day 14 after dosing with SON˜117.\nFIG. 36 illustrates the plasma concentration of the M1 metabolite of SON-117 as a function of time on day 1 after dosing with SON-117. FIG. 37 illustrates the plasma concentration of the M1 metabolite of SON-117 as a function of time on day 14 after dosing with SON-117."}, "subjective sleep": {"tested_on": "subjective sleep", "test": "Leeds Sleep Evaluation Questionnaire (LSEQ)", "assay_type": "in vivo, human", "conditions": "SON-117 1 mg; after single administration, sustained up to day 16"}, "sleep EEG parameters": {"tested_on": "sleep EEG parameters", "test": "Polysomnography / sleep EEG study", "assay_type": "in vivo, human", "experimental": "In this study, certain pharmacodynamic sleep parameters predictive of antidepressant activity were monitored and measured. […] Three doses of SON-117 were tested (1 mg, 3 mg, 7.5 mg). […] In an embodiment, SON-117 affected sleep. In an embodiment, SON-117 affected REM sleep.\n[…] subjects were tested in a sleep study, where 23 subjects were dosed with SON-117 in amounts of 1 mg up to 7.5 mg; 12 were given a placebo; and 8 were given escitalopram at a dose of 20 mg. Sleep was recorded in individual sound-attenuated and comfortably furnished bedrooms. During bedtime hours subjects were recumbent and the lights are turned off. The polysomnographic montage consisted of 4 EEG channels (C3A2, O1A2, C4A1, and O2A1), bilateral electro-oculograms, and 2 submental electromyograms. The different sleep parameters were derived with the Hypnos software from the visual scoring of the recordings at 30 sec epochs according to Rechtschaffen and Kales (1968) rules. Sleep continuity parameters comprise both sleep initiation and sleep maintenance variables. Sleep architecture parameters, which include REM sleep parameters, comprise stages distribution variables documenting duration and proportion of the different sleep stages and sleep profile variables that provide an outline on the time course of the different sleep stages during the recording period. All night sleep EEG spectral analysis was carried out on the C3-A2 derivation by means a fast Fourrier transform algorithm. Epoch length was 2 seconds at a sampling rate of 256 Hz and truncating error was reduced by applying a Hanning window. Sleep visual scores of each 30-second epoch was synchronised with power density values in order to allow the analysis of power density within in specific period of time such as REM and non REM sleep."}, "5-HT2A": {"biological_target": "5-HT2A (Homo sapiens, UniProt P28223)", "sequence (P28223 whole entry)": "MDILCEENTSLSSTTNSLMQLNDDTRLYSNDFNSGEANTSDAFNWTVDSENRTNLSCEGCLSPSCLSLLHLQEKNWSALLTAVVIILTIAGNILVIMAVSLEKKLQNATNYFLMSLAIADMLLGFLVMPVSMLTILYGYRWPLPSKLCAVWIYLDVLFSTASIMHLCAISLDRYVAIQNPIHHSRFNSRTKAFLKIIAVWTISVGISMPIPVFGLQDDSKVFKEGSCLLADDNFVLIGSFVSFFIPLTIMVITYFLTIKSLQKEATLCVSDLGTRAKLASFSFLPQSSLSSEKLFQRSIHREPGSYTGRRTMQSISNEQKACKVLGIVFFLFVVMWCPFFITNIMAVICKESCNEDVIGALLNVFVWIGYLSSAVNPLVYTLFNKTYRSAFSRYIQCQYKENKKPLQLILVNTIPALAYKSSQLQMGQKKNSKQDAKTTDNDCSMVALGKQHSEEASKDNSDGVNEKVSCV", "test": "Receptor binding, 5-HT2A"}, "5-HT1A, 5-HTT, 5-HT2A": {"tested_on": "5-HT1A, 5-HTT, 5-HT2A", "test": "Electrophysiological studies", "conditions": "first 5-HT1A is presynaptic"}},
  "note": "“Also recorded” adds a separate entry of the source. Counter-ions that a name gives are not always drawn.",
  "data": [
    {"smiles": "Cc1nnc(-c2cc3c(OC[C@@H](O)CN4CCC(c5ccc(Cl)c(Cl)c5)CC4)cccc3o2)o1", "note": "[SON-117, (S)-1-(4-(3,4-dichlorophenyl)piperidino)-3-(2-(5-methyl-1,3,4-oxadiazol-2-yl)benzo(b)furan-4-yloxy)-2-propanol hydrochloride]", "values": [
      {"measurement": "affinity, 5-HT1A receptor binding", "setting": "5-HT1A", "result": "high affinity"},
      {"measurement": "AUC, dependence on dose", "setting": "[1]", "result": "dose-proportional increase"},
      {"measurement": "Cmax, dependence on dose", "setting": "[1]", "result": "dose-proportional increase"},
      {"measurement": "LSEQ getting to sleep", "setting": "subjective sleep", "result": "easier"},
      {"measurement": "LSEQ quality of sleep", "setting": "subjective sleep", "result": "improved"},
      {"measurement": "effect of discontinuation of dosing on sleep EEG parameters, including REM sleep", "setting": "sleep EEG parameters; SON-117", "result": "no evidence"},
      {"measurement": "slow wave sleep (SWS)", "setting": "sleep EEG parameters; SON-117 1 mg, day 1 and day 14, second third of the night, hydrochloride", "result": "could increase; also recorded: increased"},
      {"measurement": "REM sleep, REM density/activity", "setting": "sleep EEG parameters; SON-117 repeated dosing, two highest dosages (3 mg, 7.5 mg), particularly 7.5 mg, hydrochloride", "result": "could have REM sleep promoting effect; also recorded: increased"},
      {"measurement": "sleep continuity and sleep architecture parameters", "setting": "sleep EEG parameters; SON-117 three doses tested (1, 3, 7.5 mg)", "result": "largely not influenced"},
      {"measurement": "affinity, 5-HT2A receptor binding", "setting": "5-HT2A", "result": "high affinity"},
      {"measurement": "order of effects in electrophysiological studies", "setting": "5-HT1A, 5-HTT, 5-HT2A", "result": "5-HT1A>5-HTT>5-HT2A>postsynaptic 5-HT1A"}
    ]}
  ]
}
